For `O=C1CC(c2ccccc2)c2cc(C(=O)c3ccc(Cl)cc3)ccc2N1` (stereo not drawn), the melting point was 204 °C. `N#Cc1cnc2cc(O)c(O)cc2c1Nc1ccc(Cl)cc1F` gave a melting point of 270 to 272 °C. `O=C(CI)NCCSC=CSCCNC(=O)CI` gave a melting point of 129 °C. `COC1CCc2c(Nc3ccc(C#N)cc3)ncnc21` (stereo not drawn) gave a melting point of 167 to 169 °C. Compound `NC(=O)c1ccc(F)c2c1CC([N+](=O)[O-])CO2` (stereo not drawn) has a melting point of 184 to 186 °C. Work on `COC(=O)[C@@H]1Cc2ccccc2N1c1ccc(Cl)nn1` yielded a melting point of 133 to 134 °C. `C#CCOc1cc(N=C(C=NOC)N2CCCC2)c(F)cc1Cl` gave a melting point of 73 to 75 °C. `CNCC1Cc2cc(F)cc(-c3cccc(OC)c3OC)c2O1` (stereo not drawn) showed a melting point of 85 to 89 °C. Work on `O=C(O)Cc1cc(C(=O)c2ccc(F)cc2)ccc1O` yielded a melting point of 218 °C. `COc1cc(OC)c(-c2cccs2)cc1/C=C/C(=O)c1ccc(S(=O)(=O)NCc2cccnc2)cc1` gave a melting point of 167 to 168 °C. Compound `COc1cc(C=C(C=O)C(C=O)=Cc2ccc(OC(=O)c3ccccc3)c(OC)c2)ccc1OC(=O)c1ccccc1` has a melting point of 107 to 110 °C. In the case of `CCOC(=O)C1(Nc2ccc(Oc3ccccc3)cc2)CC1`, the melting point is reported as 80 °C. With `N#Cc1ccc(-c2ccoc2)cc1` the melting point was 55 to 57 °C. In the case of `COc1cccc2c(NCc3ccccc3C)nccc12`, the melting point is reported as 121 to 125 °C. Compound `Cc1ccccc1C(=O)c1cc2c(cc1O)CCC2` has a melting point of 61 to 62 °C. With `COc1ccc(C)cc1NC(=O)Nc1ccc(C2=CCN(C(=O)Nc3ccc(OCCO)cc3Cl)CC2)cc1` the melting point was 117 to 120 °C. Work on `Cn1ccnc1-c1ccccc1N` yielded a melting point of 152 to 153 °C. `CSc1ccc(-c2cc(C#N)c(=O)[nH]c2C)cc1` showed a melting point of 275 to 276 °C. In the case of `CC(=O)On1c(=O)c(=O)[nH]c2cc(Cl)ccc21`, the melting point is reported as 219 °C. `O=c1c(-c2cccc(C(F)(F)F)c2)c[nH]n1-c1cccc(Cl)c1` gave a melting point of 182 to 184 °C. Work on `Cc1ccc(=S)n(-c2cccc(C(F)(F)F)c2)c1` yielded a melting point of 96 °C. With `CCOP(=O)(OCC)C(F)c1ccc(NC(=O)CCc2oc(-n3cnc4ccccc43)nc2-c2ccc(Cl)cc2)cc1` (stereo not drawn) the melting point was 152 to 155 °C. For `COc1cc(C(=O)c2ccc(C)cc2)cc(C(=O)O)c1OC`, the melting point was 135 to 136 °C. Compound `COc1cc(CNC(=O)c2oc(=O)c3ncccc3c2-c2ccc(C)cc2)cc(OC)c1OC` has a melting point of 195 to 196 °C. Compound `CC(=O)c1ccc(N)c(Br)c1` has a melting point of 59 to 62 °C. `Cc1ccc(-c2ccccc2C(=O)Nc2ccc(C(=O)N3C[C@@H]4C[C@@H](O)CN4c4ccccc43)cc2)cc1` gave a melting point of 163 to 164 °C. `CN1CCN(c2cc3c(cc2F)c(=O)c(C(=O)O)cn3CCO)CC1` showed a melting point of 270 °C. `COCCNC(=O)c1cccc(-c2ccc3c(c2)C(c2cc(Cl)ccc2Cl)CC3)c1` (stereo not drawn) showed a melting point of 116 °C. For `CCCc1cc(=O)[nH]c2c3c(cc(O)c12)OC(C)C(C)C3=O` (stereo not drawn), the melting point was 295 to 296 °C. Work on `CNc1cnc(N(Cc2ccccc2)C(=O)OCc2ccccc2)cc1-c1ccccc1C` yielded a melting point of 110 to 112 °C. For `O=C(NCc1cc(C(F)(F)F)cc(C(F)(F)F)c1)c1c(-c2ccccc2)c2cccnc2c(=O)n1CCCCO`, the melting point was 155 to 157 °C. Work on `Cc1nn(C)c2c(Cl)ncnc12` yielded a melting point of 92 to 95 °C. For `CC(=O)OC1C(N(C)S(C)(=O)=O)c2cc(OCc3ccccc3)ccc2OC1(C)C` (stereo not drawn), the melting point was 124 to 125 °C. For `Oc1cc(O)nc(C(F)(F)F)n1`, the melting point was 255 to 256 °C. For `c1cc(OC2CCNCC2)c2cn[nH]c2c1`, the melting point was 162 to 165 °C. With `CCOC(=O)NCCOc1ccc(Oc2cccc(Cl)c2)cc1` the melting point was 45 to 46 °C. `COc1ccc(S(=O)(=O)n2ccc3cccc(-c4ccc(F)cc4)c32)cc1` showed a melting point of 181 to 182 °C. Compound `CN(C)C=C(C=O)c1ccc(C(F)(F)F)cc1` has a melting point of 97 °C. Compound `O=CC1CC(O)c2ccccc2C1O` (stereo not drawn) has a melting point of 145 °C. `C[Si](C)(C)NS(C)(=O)=O` gave a melting point of 69 to 74.5 °C. With `CCNC(=O)c1ccc(-c2ccc3nnn(Cc4cc5cccnc5cc4F)c3n2)cc1Cl` the melting point was 197 to 199 °C. `Cc1ccc(Sc2nc(Cl)c(C#N)cc2F)cc1` showed a melting point of 124 to 125 °C. With `Cc1c(NC(=O)c2ccc(-c3ccccc3)cc2F)ccc2cc(CN3CCCCC3)cnc12` the melting point was 187 to 188 °C. Work on `COc1ccc(-c2nc(C#N)c[nH]2)cc1` yielded a melting point of 219 to 220 °C. `CCC(O)(CC)CCN1CCC(c2noc3cc(F)ccc23)CC1` showed a melting point of 50 to 53 °C. `COC(=O)c1cc(COc2nn(-c3ccccc3)cc2C=O)ccc1OCc1nc(-c2ccco2)oc1C` showed a melting point of 173 to 174 °C. Work on `O=C(c1ccc(I)cc1)N1CCCCC1` yielded a melting point of 126 to 127 °C. In the case of `CC(=O)Nc1nc2c(ncn2COCCOC(C)=O)c(=O)[nH]1`, the melting point is reported as 202 to 204 °C. `COC1(N2CCCC2)C=CC=C(c2cnc3[nH]cc(C(=O)C(C)(C)C)c3n2)C1` (stereo not drawn) gave a melting point of 245 to 256 °C. For `Cc1ccc(/C=C/C(=O)O)n1Cc1ccc(Cl)cc1Cl`, the melting point was 181 to 182 °C. For `O=c1cc[nH]n1-c1c(Cl)cc(C(F)(F)F)cc1Cl`, the melting point was 228 °C. `Nc1nc(N)c(-c2cc(Cl)cc(Cl)c2Cl)c(C(F)(F)F)n1` gave a melting point of 226 to 227 °C. Compound `CCOC(=O)Nc1sc(-c2ccc([N+](=O)[O-])cc2)c(C)c1C(=O)OCC` has a melting point of 130 to 131 °C. With `COc1ccc(COc2c(OC)ccc3c2CC(C(=O)O)N(C(=O)C(c2ccccc2)c2ccccc2)C3)cc1C` (racemic) the melting point was 140 to 142 °C. `CC(=O)c1nc2c(cc1F)C[C@@H]1CN(C(=O)OC(C)(C)C)C[C@@H](C)N21` gave a melting point of 178 to 180 °C. For `O=CC(=Cc1cccc(OCc2ccccc2)c1)C(C=O)=Cc1cccc(OCc2ccccc2)c1`, the melting point was 126 to 127 °C. In the case of `CC(C(=O)N(C)C)n1ccc(-c2ccc(Cl)cc2)n1` (stereo not drawn), the melting point is reported as 95 to 99 °C. Compound `CNC(=O)c1ccc2[nH]cc(C3=CCN(C)CC3)c2c1` has a melting point of 125 to 135 °C. For `CCC(c1ccc(Br)cc1)N(O)C(=O)NC` (stereo not drawn), the melting point was 110 to 112 °C. `CC(C)(CO)NC1=NS(=O)(=O)c2sc(Cl)cc2N1` showed a melting point of 224 to 226 °C. Work on `Nc1nc2ccccc2c2c1ncn2CC1(O)CCOCC1` yielded a melting point of 260 to 262 °C. For `C=C(C(=O)O)c1ccc2c(=O)c3ccccc3ccc2c1`, the melting point was 232 to 235 °C. `COc1cccc(C#Cc2ccccc2)c1` showed a melting point of 70 °C. For `O=C1c2cc(OCc3ccccc3Cl)ccc2CCN1Cc1cccnc1`, the melting point was 88.5 to 90 °C. For `Nc1c(F)c(N2CCC(n3cc(-c4ccccc4)nn3)C2)c(F)c2c1c(=O)c(C(=O)O)cn2C1CC1` (stereo not drawn), the melting point was 265 °C. For `CCN(CC1Cc2ccccc2N1CC)C(=N)N` (stereo not drawn), the melting point was 230 °C. For `CCOC(=O)c1c(NC(C)=O)cccc1C(C)=O`, the melting point was 88 °C. Compound `CC(C)(C)c1ccc(COc2ccc(CSc3ccc(OCC(=O)O)c4c3CCC4)cc2)cc1` has a melting point of 152 to 153 °C. Work on `O=C(CCC(O)c1ccc(CCNS(=O)(=O)c2ccc(Cl)cc2)cc1)Nc1nnn[nH]1` (stereo not drawn) yielded a melting point of 194 to 196 °C. `Cn1nc(C(=O)NCc2ccc(Cl)cc2)c(=O)c2cc(I)cnc21` gave a melting point of 207 to 208 °C. Work on `Nc1cc[nH]c(=O)c1Br` yielded a melting point of 255 to 258 °C. In the case of `Cc1cnccc1CO`, the melting point is reported as 77 to 80 °C. Compound `O=C(N1CCOCC1)C12CC(CN1)C2` has a melting point of 97.5 to 98 °C. With `O=C1CCCCCCCCCCCCCCCCC1O` (stereo not drawn) the melting point was 31 to 32 °C. Compound `CN(C)Nc1cc(Oc2nn(C)c(C(F)(F)F)c2Cl)ccc1[N+](=O)[O-]` has a melting point of 72 to 76 °C. `O=C1c2cccc(Oc3ccc(Cl)cc3)c2C(=O)N1Cc1cccnc1` gave a melting point of 193 to 194 °C. `CS(=O)(=O)Nc1ccc(C(=O)NCCN2CCc3ccsc3C2c2ccccc2)cc1` (stereo not drawn) gave a melting point of 185 to 187 °C. `CCNc1nc2cccc(C(=O)O)c2n1Cc1ccc(-c2ccccc2-c2nnn[nH]2)cc1` showed a melting point of 240 to 242 °C. For `CC(C)(C)C(=O)Nc1ccccc1CC(O)c1ccccc1` (stereo not drawn), the melting point was 183 to 184 °C. With `CCOC(=O)CC(=O)Nc1c(-c2ccccc2)nn2ccccc12` the melting point was 160 to 161 °C. Compound `N#Cc1c(F)c(F)cc(C(=O)O)c1F` has a melting point of 187 to 190 °C. Work on `CCC(Br)=C1NC(=O)N(C(C(=O)Nc2cc(NC(=O)C(CC)Oc3ccc(C(C)(C)CC)cc3C(C)(C)CC)ccc2Cl)C(=O)C(C)(C)C)C1=O` (stereo not drawn) yielded a melting point of 129 to 131 °C. `Cc1nc2cccc(S(=O)(=O)n3c(COC(C)C(=O)O)cc4nc(Cl)ccc43)c2s1` (stereo not drawn) gave a melting point of 203 to 205 °C. Compound `CC(=O)Oc1ccc2c(=O)c(C=O)coc2c1` has a melting point of 157 to 159 °C. With `CCCc1cc(-c2ccc(F)c3ccccc23)nc(N)n1` the melting point was 137 °C. In the case of `O=C(N[C@H](Cc1ccc(C(F)(F)F)cc1)[C@@H](O)c1cccc(Cl)n1)c1ccc(F)c2ccccc12` (racemic), the melting point is reported as 225 to 226 °C. In the case of `Fc1ccccc1CC1CCN(C2CC=C(c3ccc4c(c3)OCO4)CC2)CC1` (stereo not drawn), the melting point is reported as 118 to 119 °C. Work on `COc1cc(CC2COC(c3ccc(O)c(OC)c3)C2CO)ccc1O` (stereo not drawn) yielded a melting point of 169 to 171 °C. Compound `O=C(Nc1ccccc1C(c1ccc(O)cc1)c1ccc(O)cc1)C1CCCCC1` has a melting point of 220 to 223 °C. In the case of `O=C1NC(=O)C2(CCNCC2)N1Cc1ccccc1`, the melting point is reported as 195 to 196 °C. For `CC(C)(C)OC(=O)N[C@@H](Cc1ccccc1)C(=O)N1CCN(C(c2ccc(F)cc2)c2ccc(F)cc2)CC1`, the melting point was 54 to 74 °C. With `COc1ccc(Br)c(C=O)c1` the melting point was 73 to 74 °C. For `CCCCCCCCON=C(C(=O)OCC)c1csc(N)n1`, the melting point was 77 to 78 °C. Compound `CCN1CCN(Cc2ccc(COc3cccc4c3CN(C3CCC(=O)NC3=O)C4=O)cc2)CC1=O` (stereo not drawn) has a melting point of 163 to 165 °C. Work on `CSc1nc(-c2ccc(N)cc2)c[nH]1` yielded a melting point of 85 to 86 °C. Work on `N#Cc1ccc(Nc2ccncc2[N+](=O)[O-])cc1` yielded a melting point of 210 to 211 °C. For `CN(C)C(=O)CC1CN=C(c2cc3cc(Oc4ccc(S(C)(=O)=O)nc4)ccc3[nH]2)S1` (stereo not drawn), the melting point was 190 to 191 °C. With `CC(C)(C)N1CC(=O)Nc2ccc(Cl)cc2C1=O` the melting point was 177 to 178 °C. `CC(c1oc2ccccc2c(=O)c1-c1cccc(F)c1)n1nc(-c2ccc(Cl)s2)c2c(N)ncnc21` (stereo not drawn) showed a melting point of 226 to 229 °C. In the case of `COc1ccc(Cl)cc1NC(=O)NCC(=O)c1ccccc1`, the melting point is reported as 171 to 173 °C. `C#Cc1ccnc(NC(C)C)n1` gave a melting point of 84 to 85 °C. In the case of `CC[C@@H](O)CC(=O)N[C@H]1CC[C@H](CCN2CCN(c3nccc4c3OCC4)CC2)CC1`, the melting point is reported as 146 °C. Compound `CCOC(=O)C(C)Oc1ncn(-c2ccc(C)cc2)n1` (stereo not drawn) has a melting point of 69 to 71 °C.
